This is an account of results in patent US20230220339A1, “T CELL, PREPARATION METHOD FOR SAME, AND APPLICATIONS THEREOF” (BENETHERA (BEIJING) BIOTECHNOLOGY CO., LTD., priority 2020, published 2023).

What all share (format): cell-based, mouse
One assay has as its system m-calpain. As to the kind of experiment: Calpain activity by digestion of the calpain substrate CMAC (flow cytometry). The settings on record: for calpain activity (digestion rate of CMAC) after Ryr activation: 4-CMC treatment, FIG. 7. As to the method: Wherein calpain activity measurement procedure: To measure calpain activity, 10^5 T cells were incubated in 200 µL of medium containing 20 µM calpain substrate CMAC (t-BOC-Leu-Met, Thermo Fisher) in the dark at room temperature. After 5 min of incubation, the reaction was terminated with 1 % PFA (Biosharp) and the cells were immediately placed on ice. The fluorescent signal emitted from the digested substrate was measured as calpain activity by Fortessa flow cytometer through the Hoechst blue channel. In all experiments, the inhibitor JTV519 was added 30 min prior to the experiments, and activator 4-CmC and CMAC were added at the same time.
In general terms: Flow cytometry measures light scatter and fluorescence of single cells or particles in a stream.

Another assay concerns 3T3 and A20 cells. As to the kind of experiment: 4-CmC-induced Ca^2+ signal in cells with or without FoxP3 overexpression. The note with it: FoxP3-transfected 3T3 and A20 cells vs non-FoxP3 overexpression group, HBSS without calcium ions, FIG. 24. The protocol: For non-adherent cells, Treg, Tconv and A20 cells were stained with […] fluo-4 AM (Thermo Fisher) for 1 h at 37° C. After washing, the cells were adhered to poly-L-lysine coated (0.1 mg/mL; Sigma-Aldrich) round glass slides mounted in the sandwich home-made chamber at room temperature. After 15 min, excess non-adherent cells were removed by washing with buffer. For adherent cells, NIH-3T3 and Renca cells grown on glass slides were stained with […] fluo-4 AM (Thermo Fisher) for 1 hour at 37° C. The measurement chamber was then placed on an Olympus IX-73 microscope equipped with a 20-fold (numerical aperture: 0.8) or 40-fold (numerical aperture: 1.2) Olympus objective. Unless otherwise stated, Ca^2+ oscillation within 20 min was recorded at intervals of 6 s. […] For the stimulation experiments, Ca^2+ oscillation within 5 min was recorded at intervals of 1 s. […] The emission signal at 468 nm to 550 nm excited by the 488 nm laser was recorded with a charge coupled device camera (ORCA-AG, Hamamatsu). […] The mean fluorescence intensity changes over time in individual cells were analyzed using ImageJ and normalized with fluorescence intensity in the first frame (Fluo-4 F / F0). The peak of Ca^2+ oscillation of the individual cells was shown, and the standard deviation of Ca^2+ fluctuation intensity was calculated as Mean ± SEM. […]

A further assay has as its system DC2.4 cells. Briefly: AFM single cell force spectrum, T-DC adhesion (two-cell system). The settings on record: Ryr2 blocked in Tconv; intensities even stronger than that of Treg, FIG. 14. As to the method:
The atomic force microscope-based single cell force spectrum procedures were performed using JPK CellHesion device as described above (see “Alum interaction with dendritic cell membrane lipids is essential for its adjuvanticity” (Flach et al., Nat Med 17, 479-487, 2011) and “Strong adhesion by regulatory T cells induces dendritic cell cytoskeletal polarization and contact-dependent lethargy” (Chen et al., The Journal of experimental medicine, 2017)). Briefly, to measure T-DC adhesion in a two-cell system, DC2.4 cells were cultured on untreated glass plates. T cells were treated with 200 U/mL human IL-2 overnight. The glass plates were moved into an AFM compatible chamber and mounted on a machine table. Clean cantilevers were coated with CellTak (BD), and then stick an individual T cell on thefront end of the cantilever. The AFM cantilever carrying the individual T cell was lowered to allow T cell contact with a single DC and to interact for 15 s, and then moved upward until the two cells were completely separated. A force spectrum curve was obtained. The process was then repeated. […] Treg/Tconv contact-mediated inhibition of OT-II-DC adhesion was analyzed. […] For each SCFS experiment, a T-DC pair was used to generate force readings for each up-down cycle during a period of several minutes. […]

The structures appear in SMILES notation.

As for `Cc1cc(O)ccc1Cl` [4-CmC], the “calpain activity (digestion rate of CMAC) after Ryr activation” value in the assay on m-calpain (Tconv cells) is reported as “completely able to induce calpain activity”; with m-calpain (Treg cells) it was “not sensitive”. In the assay on 3T3 and A20 cells, the “Ca^2+ signal driven by 4-CmC” value was “drives much less Ca^2+ signal”.

With `COc1ccc2c(c1)CN(C(=O)CCN1CCC(Cc3ccccc3)CC1)CCS2` [JTV519], the “digestion of m-calpain substrate after JTV519 treatment” value with m-calpain (Tconv, inhibitor added 30 min prior, FIG. 13) was “digestion of low m-calpain substrate”. The “contact of treated Tconv with dendritic cells (adhesion)” value in the assay on DC2.4 cells is “induced strong contact with dendritic cells”.
